Publication PMC8881077 (Journal of Enzyme Inhibition and Medicinal Chemistry, 2022)

Tests used:
in vitro = details: PAMPA
[1] = tested on: scopolamine-induced mice memory impairment; experiment: Step-down passive avoidance task; details: scopolamine 3 mg/kg
Experimental: Sixty mice were randomly divided into six groups. […] After 30 min, memory impairment was induced by administering scopolamine (3 mg/kg).

[2] = tested on: normal human hepatocytes cell line (LO2); experiment: Hepatoprotective activity on H2O2-induced LO2 cell injury; assay type: cell-based; details: LO2 cells, 1000 μM H2O2
Experimental: The anti-AD drug tacrine has been forced to withdraw due to severe hepatotoxicity. Thus, the hepatotoxicity of compounds 5f on normal human hepatocytes cell line (LO2) was evaluated using MTT assay. […] Furthermore, the hepatoprotective activity of compound 5f on H2O2-induced live injury was tested using an MTT assay. […]
• Materials. LO2 cells purchased from Wuhan Punosi Life Technology Co., Ltd. 30% H2O2, Trichloroacetic acid (TCA), SRB, DMEM medium (HyClone), Foetal bovine serum (LNSER, article number: S711-001S), Penicillin streptomycin mixture (double antibiotic) (Solarbio), 0.25% trypsin-EDTA digestive juice (Solarbio), DMSO (Solarbio), Potassium dihydrogen phosphate (Xiyu Science Co., Ltd., CAS: 7778-77-0); Ultra-clean workbench (Wuxi Easy Purification Equipment Co., Ltd., model: SW-CJ-VS2); Carbon dioxide incubator (Esco, model: 2014-88759); […]; • Experiment method. (a) Cell culture: cultured in DMEM medium containing 10% FBS and 1% double-antibody, placed in 37 °C, 5% CO2 constant temperature and humidity incubator, changed every 2 days, subcultured when cells were 90% confluent. (b) Effect of compounds on LO2 proliferation by SRB assay: Discard the culture medium, fix the cells with 10% (m/v) trichloroacetic acid (TCA) 100 μL, and place in a refrigerator at 4 °C for 1 h. The fixing solution was discarded, washed 5 times with distilled water, and dried in an oven. Adding 100 μL SRB solution to each well after drying, and leave it at room temperature for 10-30 min. Discard the supernatant, wash it 5 times with 1% glacial acetic acid water, air dry. Finally, add 100 μL/well of 10 mmol/L Tris-based buffer solution and oscillate on a plate shaker. The OD value was measured at 515 nm using a microplate reader. Cell viability (%) = OD test well/OD blank control well x 100%. (c) Effect of compounds on H2O2-induced LO2 cell injury by SRB assay. […] After treatment with H2O2 for 6h, the survival rate was measured by the SRB method.

CCN(CCCCCOc1cc(O)c2c(c1)OC(c1ccc(O)cc1)CC2=O)Cc1ccccc1 (stereo not shown) [Compound 5f, 7-((5-(benzyl(ethyl)amino)pentyl)oxy)-5-hydroxy-2–(4-hydroxyphenyl)chroman-4-one]
Papp at 100 μg/mL (in vitro): 6.9 ± 0.36 ×10⁻⁶ cm/s
step-down latency ([1]; 1.9 mg/kg): 153.7 s
step-down latency ([1]; 5.7 mg/kg): 183.4 s
step-down latency ([1]; 17.1 mg/kg): 207.8 s
viability at 5 µM ([2]; L02, 5.0 μM): 65.2%
viability at 10 µM ([2]; L02, 10.0 μM): 69.7%
viability at 20 µM ([2]; L02, 20.0 μM): 79.4%
